Data reported in PubChem BioAssay AID248 (DTP/NCI, 2004).
Where “and” joins values, the source holds several entries; their conditions need not be identical. Equal values may be shown once. Inconclusive results and toxic doses are left out. Cut-off read from the data, not from the text of the source: active = T/C of 150% or more; inactive = T/C below 125%.

System: L1210 leukemia ip in BDF1 mice, survival T/C
Assay: NCI In Vivo Anticancer Drug Screen. Data for tumor model L1210 Leukemia (intraperitoneal) in B6D2F1 (BDF1) mice
Conditions: endpoint: mean survival time, higher = longer survival
Method in brief: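 Ratio derived from survival: compound-dosed mice over vehicle-dosed mice, all bearing a transplantable tumor.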

[1] = dose: 100.0 mg/kg/injection, schedule: Q01DX009 (ip), vehicle: saline with Tween-80
[2] = dose: 200.0 mg/kg/injection, schedule: Q01DX009 (ip), vehicle: saline with Tween-80
[3] = dose: 100.0 mg/kg/injection, schedule: Q04DX002 (ip), vehicle: Klucel (hydroxypropylcellulose) (HPC)
[4] = dose: 200.0 mg/kg/injection, schedule: Q04DX002 (ip), vehicle: Klucel (hydroxypropylcellulose) (HPC)
[5] = dose: 400.0 mg/kg/injection, schedule: Q04DX002 (ip), vehicle: Klucel (hydroxypropylcellulose) (HPC)
[6] = dose: 75.0 mg/kg/injection, schedule: Q01DX009 (ip), vehicle: Klucel (hydroxypropylcellulose) (HPC)
[7] = dose: 150.0 mg/kg/injection, schedule: Q01DX009 (ip), vehicle: Klucel (hydroxypropylcellulose) (HPC)
[8] = dose: 300.0 mg/kg/injection, schedule: Q01DX009 (ip), vehicle: Klucel (hydroxypropylcellulose) (HPC)
[9] = dose: 400.0 mg/kg/injection, schedule: Q01DX009 (ip), vehicle: saline with Tween-80
[10] = dose: 100.0 mg/kg/injection, schedule: Q01DX001 (ip), vehicle: carboxymethylcellulose (CMC)
[11] = dose: 200.0 mg/kg/injection, schedule: Q01DX001 (ip), vehicle: carboxymethylcellulose (CMC)
[12] = dose: 400.0 mg/kg/injection, schedule: Q01DX001 (ip), vehicle: carboxymethylcellulose (CMC)
[13] = dose: 100.0 mg/kg/injection, schedule: Q01DX009 (ip), vehicle: saline
[14] = dose: 200.0 mg/kg/injection, schedule: Q01DX009 (ip), vehicle: saline
[15] = dose: 400.0 mg/kg/injection, schedule: Q01DX009 (ip), vehicle: saline

Measured: T/C

CC(C)(C)c1ccc(OCC(=O)O)c(Cl)c1
inactive: [1] 91 % of control | [2] 101 % of control

CCOC(=O)/C(O)=C\c1cc[n+]([O-])nc1Cl
inactive: [3] 101 % of control | [4] 101 % of control | [5] 101 % of control

CS(=O)(=O)Nc1ccccc1N
inactive: dose: 100.0 mg/kg/injection, schedule: Q01DX009 (ip), vehicle: Klucel (hydroxypropylcellulose) (HPC) 95 % of control | dose: 200.0 mg/kg/injection, schedule: Q01DX009 (ip), vehicle: Klucel (hydroxypropylcellulose) (HPC) 93 % of control

c1ccc(C2=NC(c3ccccc3)(C3(c4ccccc4)SCCCS3)CO2)cc1 (stereo not given)
inactive: [6] 101 % of control | dose: 100.0 mg/kg/injection, schedule: Q04DX003 (ip), vehicle: Klucel (hydroxypropylcellulose) (HPC) 102 % of control | [7] 98 % of control | dose: 200.0 mg/kg/injection, schedule: Q04DX003 (ip), vehicle: Klucel (hydroxypropylcellulose) (HPC) 105 % of control | [8] 90 % of control | dose: 400.0 mg/kg/injection, schedule: Q04DX003 (ip), vehicle: Klucel (hydroxypropylcellulose) (HPC) 102 % of control

OCCOc1nc(OCCO)c(Cl)c(C(Cl)(Cl)Cl)n1
inactive: [1] 98 % of control | [2] 93 % of control | [9] 86 % of control

Cn1c(=O)[nH]c(=O)c2c1[nH]c(=O)c(=O)n2C
inactive: dose: 50.0 mg/kg/injection, schedule: Q01DX001 (ip), vehicle: carboxymethylcellulose (CMC) 101 % of control | [10] 98 % of control | [11] 95 % of control | [12] 106 % of control

O=C1OCCC12CCCCC21OCCO1 (stereo not given)
inactive: dose: 100.0 mg/kg/injection, schedule: Q01DX001 (ip), vehicle: saline 101 % of control | dose: 200.0 mg/kg/injection, schedule: Q01DX001 (ip), vehicle: saline 104 % of control | dose: 400.0 mg/kg/injection, schedule: Q01DX001 (ip), vehicle: saline 98 % of control

CCCOC(=O)C#CC(=O)OCCC
inactive: dose: 1.56 mg/kg/injection, schedule: Q01DX001 (ip), vehicle: carboxymethylcellulose (CMC) 101 % of control | dose: 1.56 mg/kg/injection, schedule: Q01DX009 (ip), vehicle: carboxymethylcellulose (CMC) 93 % of control | dose: 1.56 mg/kg/injection, schedule: Q04DX002 (ip), vehicle: carboxymethylcellulose (CMC) 92 % of control and 98 % of control | dose: 1.56 mg/kg/injection, schedule: Q04DX003 (ip), vehicle: carboxymethylcellulose (CMC) 101 % of control | dose: 3.13 mg/kg/injection, schedule: Q01DX001 (ip), vehicle: carboxymethylcellulose (CMC) 94 % of control | dose: 3.13 mg/kg/injection, schedule: Q01DX009 (ip), vehicle: carboxymethylcellulose (CMC) 92 % of control and 86 % of control | dose: 3.13 mg/kg/injection, schedule: Q04DX002 (ip), vehicle: carboxymethylcellulose (CMC) 92 % of control and 98 % of control | dose: 3.13 mg/kg/injection, schedule: Q04DX003 (ip), vehicle: carboxymethylcellulose (CMC) 98 % of control | dose: 6.25 mg/kg/injection, schedule: Q01DX001 (ip), vehicle: carboxymethylcellulose (CMC) 97 % of control | dose: 6.25 mg/kg/injection, schedule: Q01DX009 (ip), vehicle: carboxymethylcellulose (CMC) 93 % of control and 89 % of control | dose: 6.25 mg/kg/injection, schedule: Q04DX002 (ip), vehicle: carboxymethylcellulose (CMC) 103 % of control and 104 % of control | dose: 6.25 mg/kg/injection, schedule: Q04DX003 (ip), vehicle: carboxymethylcellulose (CMC) 106 % of control

O=C(Nc1ccc(Cl)cc1C(F)(F)F)Oc1ccc(Cl)cc1Br
inactive: dose: 50.0 mg/kg/injection, schedule: Q01DX009 (ip), vehicle: saline with Tween-80 98 % of control | [1] 103 % of control | [2] 103 % of control

CCC1C(=O)C=C(C)OC1=O (stereo not given)
inactive: [6] 107 % of control | [7] 101 % of control | [8] 86 % of control

O=C(c1ccccc1)c1ccc2ccc(F)cc2c1C(=O)O
inactive: [1] 113 % of control | dose: 100.0 mg/kg/injection, schedule: Q04DX003 (ip), vehicle: other 95 % of control | [2] 113 % of control | dose: 200.0 mg/kg/injection, schedule: Q04DX003 (ip), vehicle: other 103 % of control | [9] 107 % of control | dose: 400.0 mg/kg/injection, schedule: Q04DX003 (ip), vehicle: other 101 % of control

CN(C)c1ccc(N=Nc2ccc3c(c2)C(=O)c2ccccc2C3=O)cc1
inactive: dose: 100.0 mg/kg/injection, schedule: Q01DX009 (ip), vehicle: other 104 % of control | dose: 200.0 mg/kg/injection, schedule: Q01DX009 (ip), vehicle: other 105 % of control | dose: 400.0 mg/kg/injection, schedule: Q01DX009 (ip), vehicle: other 98 % of control

OB(O)c1ccc(F)cc1
inactive: dose: 100.0 mg/kg/injection, schedule: Q04DX003 (ip), vehicle: acetone 101 % of control | dose: 200.0 mg/kg/injection, schedule: Q04DX003 (ip), vehicle: acetone 98 % of control | dose: 400.0 mg/kg/injection, schedule: Q04DX003 (ip), vehicle: acetone 97 % of control

CCOC(=O)C1C2CCCC(=O)C21 (stereo not given)
inactive: [3] 96 % of control | [4] 104 % of control | [5] 100 % of control

COc1cc(Cl)ccc1NC(=O)Oc1ccc(F)cc1
inactive: [13] 123 % of control | [14] 101 % of control | [15] 115 % of control

Cc1cc(C)c2cc3cccc[n+]3cc2c1
inactive: dose: 2.0 mg/kg/injection, schedule: Q01DX015 (ip), vehicle: saline 100 % of control | dose: 4.0 mg/kg/injection, schedule: Q01DX001 (ip), vehicle: carboxymethylcellulose (CMC) 105 % of control | dose: 4.0 mg/kg/injection, schedule: Q01DX015 (ip), vehicle: saline 107 % of control | dose: 8.0 mg/kg/injection, schedule: Q01DX001 (ip), vehicle: carboxymethylcellulose (CMC) 107 % of control | dose: 16.0 mg/kg/injection, schedule: Q01DX001 (ip), vehicle: carboxymethylcellulose (CMC) 107 % of control

NC(Cc1cc(Cl)c(O)c(Cl)c1)C(=O)O (stereo not given)
inactive: [13] 103 % of control | dose: 150.0 mg/kg/injection, schedule: Q01DX009 (ip), vehicle: saline 108 % of control | [14] 103 % of control

Nc1ncc2[nH]c(I)nc2n1
inactive: dose: 5.0 mg/kg/injection, schedule: Q01DX001 (ip), vehicle: saline 98 % of control

CC(=O)Nc1ccc(OC(=O)Nc2ccc([N+](=O)[O-])cc2Cl)cc1
inactive: [13] 102 % of control | dose: 100.0 mg/kg/injection, schedule: Q04DX003 (ip), vehicle: saline 103 % of control | [14] 104 % of control | dose: 200.0 mg/kg/injection, schedule: Q04DX003 (ip), vehicle: saline 100 % of control | [15] 104 % of control | dose: 400.0 mg/kg/injection, schedule: Q04DX003 (ip), vehicle: saline 103 % of control

CC1C2C=CC(C2)C1C(=O)O (stereo not given)
inactive: [10] 98 % of control | dose: 100.0 mg/kg/injection, schedule: Q04DX003 (ip), vehicle: saline with Tween-80 96 % of control and 97 % of control and 88 % of control | [11] 96 % of control | dose: 200.0 mg/kg/injection, schedule: Q04DX003 (ip), vehicle: saline with Tween-80 89 % of control and 92 % of control and 91 % of control | [12] 96 % of control | dose: 400.0 mg/kg/injection, schedule: Q04DX003 (ip), vehicle: saline with Tween-80 99 % of control and 97 % of control
